From patent publication US20060234987A1, “Neuroprotective benzo 1 3 oxathiol 2 ones” (priority 2003, published 2006)

Assays:
SCG neurons [1] = experiment: In vitro protection of SCG neurons from Taxol killing; format: cell-based, Sprague Dawley rats; conditions: Rattus norvegicus, Neuron; Taxol 50 ng/mL, 48 hours, MTS viability; read-out: IC50, rescue from Taxol killing of SCG neurons
Text: Taxol™ is regularly used in the treatment of breast and other cancers. Taxol™ binds to the cyto-skeletal protein tubulin, thereby inhibiting normal microtubular […] and inducing cellular apoptosis. Despite its potency as an anti-tumour agent, Taxol™ is also toxic to neurons, inducing dose limiting peripheral neuropathies. The addition of Taxol™ to cultured SCG neurons induces the degradation or loss of upwards of 80% of the neurons. The addition of selected compounds of Formula I to the cellular media, concurrently with Taxol™, protects upwards of 100% of the neurons, at drug concentrations ranging from 3 to 50 μM (see Example 63).
In Vitro Protection of SCG neurons from Taxol killing. SCG neurons were isolated from day 1 neonatal Sprague Dawley rats, plated at a cell density of 10,000 cells/well, and incubated in Biowhittaker Ultraculture containing 1% Penstrep, 1% L-glutamine, 0.7% ARAC, 3% rat serum, and NGF (50 ng/mL, Calomone Labs) at 37° C., under a 5% CO2 atmosphere. After 5 days the cells were treated with compound and Taxol™ (50 ng/mL). Viability of neurons was assessed 48 hours later using MTS (Promega) staining. Table 4 summarizes selected IC50 values from compounds tested using this protocol. Also, see FIG. 1 for compound protection against Taxol killing.

SCG neurons [2] = experiment: Protection of SCG neurons from anti-NGF killing; format: cell-based, Sprague Dawley rats; conditions: Rattus norvegicus, Neuron, read-out: IC50, rescue from anti-NGF killing of cultured SCG neurons
Experimental: Neurotrophins are critical to the growth, development, and survival of small fiber neurons of the PNS. SCG neurons are neurons of the PNS that undergo apoptosis upon NGF withdrawal. In a typical experiment SCG neurons are cultured in the presence of NGF, which induces survival and neurite out-growth. After 5 days the NGF is removed by either the addition of anti-NGF polyclonal antibody (Sigma) or by repeated washings (4 times) with NGF free media, resulting in the apoptosis of up to 90% of the neurons after 48 hours, as measured by MTS staining. The addition of selected compounds of Formula I to the final cellular media provides upwards of 100% protection, at drug concentrations ranging from 10 to 50 μM (see Example 62).
Protection of SCG neurons from anti-NGF killing. SCG neurons were isolated from day 1 neonatal Sprague Dawley rats, plated at a cell density of 5,000 cells/well, and incubated in Biowhittaker Ultraculture containing 1% Penstrep, 1% L-glutamine, 0.7% ARAC, 3% rat serum, and NGF (50 ng/mL, Calomone Labs), at 37° C., under a 5% CO2 atmosphere. After 4 days the cells were treated with anti-NGF antibody (Sigma). At this time compound was added and the cells were maintained serum and NGF free for 48 hours, at which time viability of the neurons was assessed using Alamar Blue (Medicorp) staining. Table 3 summarizes selected IC50 values from compounds tested using this protocol.

[3] = Conversion of esters and carbamates to phenol in microsomal fractions; format: in vitro ADME; conditions: incubated with microsomal fractions, standard conditions
Experimental: The phenolic moiety observed in many of the compounds represented by Formula I may be converted to esters, carbamates, thiocarbamates and sulfonates. The Applicant has shown that both esters and carbamates are rapidly converted to the corresponding phenol when incubated in the presence of microsomal fractions using standard conditions (Cresteil, T., et al. Am. Soc. Pharm. Exper. Therapeutics, 2002, 30, 438-445). These microsomal fractions contain various active esterase and P450 oxidative enzymes. […] Esters and carbamates of this type allow for the preparation of various novel pro-drugs which display increased water solubility, stability, formulation, and pharmacokinetic profiles. The carbamates disclosed in U.S. Pat. No. 4,349,685 are limited to lower alkyl, substituted aryl, haloalkyl, carbalkoxyalkene or an alkyl carbonyloxyalkylene group. The preferred embodiments of this disclosure include esters and carbamates represented by Formula I, where the carbamate or ester moiety includes substituted lower alkyl, heteroaryl, substituted heteroaryl moieties which contain a basic nitrogen, capable of increasing the water solubility of said compound via an acid/base salt (typified by compounds 55 and 61).

[4] = anti-NGF antibody, 48 hours, Alamar Blue viability

Row | SMILES | IC50 (SCG neurons [1]) | IC50 (SCG neurons [2]; [4]) | conversion to parent phenol in microsomal fractions [3] | IC50 (SCG neurons [2]; 48 h)
1 | O=c1oc2ccc(O)cc2s1 [Compound 1, 5-Hydroxybenzo[1,3]oxathiol-2-one] | 25 µM | – | – | –
2 | O=C(Oc1cc(-c2ccc(-c3ccccc3)cc2)c2oc(=O)sc2c1)c1cccnc1 [Compound 55, 5-(3-pyridylcarbonyloxy)-7-biphenylbenzo[1,3]oxathiol-2-one] | 2 µM | 7 µM | rapidly converted to their parent phenols | –
3 | O=c1oc2c(Sc3cccc4ccccc34)cc(O)cc2s1 [Compound 22, 5-Hydroxy-7-((1-naphthyl)sulfanyl)benzo[1,3]oxathiol-2-one] | 10 µM | > 30 µM | – | –
4 | O=c1oc2c(Cl)cc(O)c(Cl)c2s1 [Compound 3, 4,7-Dichloro-5-hydroxybenzo[1,3]oxathiol-2-one] | 10 µM | – | – | –
5 | COc1ccc(NC(=O)Oc2cc(Sc3ccc4ccccc4c3)c3oc(=O)sc3c2)cc1 [Compound 26, 5-(N-(4-methoxyphenyl)carbamoyloxy)-7-((2-naphthyl)sulfanyl)benzo[1,3]oxathiol-2-one] | 7 µM | – | – | 16 µM
